Measured values: the supplement of paper PMC11061612

What was measured:
Experiment in all cases: combination Emax (second highest fraction inhibited in the dose matrix, 72 h); higher = more inhibition; extreme values may be limits of the assay
[1] = test system: CPC-N (Small Cell Lung Carcinoma)
Procedure, shortened: (§1)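 Cell lines in DMEM/F12 or RPMI with 10% FBS were plated in 1536-well plates, held 24 hours at 37°C, 5% CO2, then given two-drug dose matrices for 72 hours (DMSO typically 0.2%). Viability was read by CellTiter-Glo 2.0 luminescence and scaled as inhibition from 0 (vehicle wells) to 1 (blank wells). Combination Emax is the second-highest inhibition in the matrix; Bliss excess is observed combination effect minus expected EA + EB − EA·EB, EA and EB being single-agent effects.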

UACC-257 (Melanoma) = test system: UACC-257 (Melanoma)
Procedure, shortened: as §1

[2] = test system: OAW-28 (Ovarian Carcinoma)
Procedure, shortened: as §1

[3] = test system: COR-L88 (Small Cell Lung Carcinoma)
Procedure, shortened: as §1

[4] = test system: MOLT-13 (T-Lymphoblastic Leukemia)
Procedure, shortened: as §1

[5] = test system: MDA-MB-415 (Breast Carcinoma)
Procedure, shortened: as §1

[6] = test system: DBTRG-05MG (Glioblastoma)
Procedure, shortened: as §1

NCI-H226 (Mesothelioma) = test system: NCI-H226 (Mesothelioma)
Procedure, shortened: as §1

[7] = test system: NCI-H1876 (Small Cell Lung Carcinoma)
Procedure, shortened: as §1

[8] = test system: PA-TU-8988T (Pancreatic Carcinoma)
Procedure, shortened: as §1

ES6 (Ewing's Sarcoma) = test system: ES6 (Ewing's Sarcoma)
Procedure, shortened: as §1

[9] = test system: SNU-407 (Colorectal Carcinoma)
Procedure, shortened: as §1

[10] = test system: P30-OHK (B-Lymphoblastic Leukemia)
Procedure, shortened: as §1

[11] = test system: P32-ISH (Burkitt's Lymphoma)
Procedure, shortened: as §1

[12] = test system: SNU-C2B (Colorectal Carcinoma)
Procedure, shortened: as §1

[13] = test system: SAT (Head and Neck Carcinoma)
Procedure, shortened: as §1

[14] = test system: CL-11 (Colorectal Carcinoma)
Procedure, shortened: as §1

[15] = test system: NCI-H1963 (Small Cell Lung Carcinoma)
Procedure, shortened: as §1

[16] = test system: SUP-M2 (T-Cell Non-Hodgkin's Lymphoma)
Procedure, shortened: as §1

| SMILES | combination Emax [1] | combination Emax (UACC-257 (Melanoma)) | combination Emax [2] | combination Emax [3] | combination Emax [4] | combination Emax [5] | combination Emax [6] | combination Emax (NCI-H226 (Mesothelioma)) | combination Emax [7] | combination Emax [8] | combination Emax (ES6 (Ewing's Sarcoma)) | combination Emax [9] | combination Emax [10] | combination Emax [11] | combination Emax [12] | combination Emax [13] | combination Emax [14] | combination Emax [15] | combination Emax [16] |
| --- | --- | --- | --- | --- | --- | --- | --- | --- | --- | --- | --- | --- | --- | --- | --- | --- | --- | --- | --- |
| COc1cc2ncnc(Nc3ccc(F)c(Cl)c3)c2cc1OCCCN1CCOCC1 [Gefitinib] + CC(C)n1c(=O)n(C)c2cnc3cc(F)c(-c4ccc(OCCCN5CCCCC5)nc4)cc3c21 [AZD1390] (first compound max 10 µM, 7x7, partner max 0.3 µM) | 0.0984 | 0.053 | 0.215 | 0.21 | 0.311 | 0.191 | 0.0768 | 0.0952 | 0.178 | 0.15 | 0.194 | 0.168 | 0.173 | 0.333 | 0.246 | 0.69 | 0.0239 | 0.062 | 0.116 |
| CS(=O)(=O)CCNCc1ccc(-c2ccc3ncnc(Nc4ccc(OCc5cccc(F)c5)c(Cl)c4)c3c2)o1 [Lapatinib] + C[C@@H](Oc1cc(-c2cnn(C3CCNCC3)c2)cnc1N)c1c(Cl)ccc(F)c1Cl [Crizotinib] (first compound max 10 µM, 7x7, partner max 10 µM) | 0.845 | 0.947 | 0.75 | 0.57 | 0.853 | 0.633 | 0.332 | 0.44 | 0.934 | 0.64 | 0.953 | 0.966 | 0.972 | 1 | 0.753 | 0.981 | 0.928 | 0.966 | 1 |
| CC(=O)c1c(C)c2cnc(Nc3ccc(N4CCNCC4)cn3)nc2n(C2CCCC2)c1=O [Palbociclib] + CC1(C)CCC(CN2CCN(c3ccc(C(=O)NS(=O)(=O)c4ccc(NCC5CCOCC5)c([N+](=O)[O-])c4)c(Oc4cnc5[nH]ccc5c4)c3)CC2)=C(c2ccc(Cl)cc2)C1 [Venetoclax] (first compound max 10 µM, 7x7, partner max 1 µM) | 0.106 | 0.057 | 0.173 | 0.331 | 0.709 | 0.155 | 0.114 | 0.176 | 0.224 | 0.141 | 0.232 | 0.398 | 0.866 | 0.66 | 0.152 | 0.353 | 0.298 | 0.922 | 0.738 |
| CC(=O)c1c(C)c2cnc(Nc3ccc(N4CCNCC4)cn3)nc2n(C2CCCC2)c1=O [Palbociclib] + Cc1c2c(nn1C)CSCc1cc(n(C)n1)CSc1cc(c3ccccc3c1)OCCCc1c(C(=O)O)n(C)c3c-2c(Cl)ccc13 [AZD5991] (first compound max 10 µM, 7x7, partner max 1 µM) | 0.264 | 0.21 | 0.277 | 0.307 | 1 | 0.444 | 0.169 | 0.204 | 0.534 | 0.229 | 0.412 | 0.621 | 0.811 | 1 | 0.365 | 0.821 | 0.309 | 0.534 | 1 |
| CC(=O)c1c(C)c2cnc(Nc3ccc(N4CCNCC4)cn3)nc2n(C2CCCC2)c1=O [Palbociclib] + Cn1cnc2c(F)c(Nc3ccc(Br)cc3Cl)c(C(=O)NOCCO)cc21 [Selumetinib] (first compound max 10 µM, 7x7, partner max 10 µM) | 0.14 | 0.647 | 0.344 | 0.223 | 0.721 | 0.254 | 0.338 | 0.232 | 0.312 | 0.514 | 0.349 | 0.654 | 0.408 | 0.699 | 0.303 | 0.549 | 0.864 | 0.456 | 0.88 |
| C[C@@H](c1ccc2nccn2c1)n1nnc2ncc(-c3cnn(C)c3)nc21 [Savolitinib] + CC1(C)CCC(CN2CCN(c3ccc(C(=O)NS(=O)(=O)c4ccc(NCC5CCOCC5)c([N+](=O)[O-])c4)c(Oc4cnc5[nH]ccc5c4)c3)CC2)=C(c2ccc(Cl)cc2)C1 [Venetoclax] (first compound max 1 µM, 7x7, partner max 1 µM) | 0.203 | 0.104 | 0.163 | 0.207 | 0.467 | 0.261 | 0.117 | 0.17 | 0.0954 | 0.165 | 0.179 | 0.231 | 0.163 | 0.0681 | 0.0589 | 0.151 | 0.09 | 0.422 | 0.182 |
| C[C@@H](c1ccc2nccn2c1)n1nnc2ncc(-c3cnn(C)c3)nc21 [Savolitinib] + Cc1c2c(nn1C)CSCc1cc(n(C)n1)CSc1cc(c3ccccc3c1)OCCCc1c(C(=O)O)n(C)c3c-2c(Cl)ccc13 [AZD5991] (first compound max 1 µM, 7x7, partner max 1 µM) | 0.263 | 0.151 | 0.142 | 0.23 | 0.99 | 0.344 | 0.0768 | 0.131 | 0.32 | 0.243 | 0.174 | 0.666 | 0.683 | 1 | 0.187 | 0.427 | 0.132 | 0.192 | 1 |
